One data set deals with T1, COX-1 (Mus musculus, UniProt P22437).
T1 sequence (P22437 27-602): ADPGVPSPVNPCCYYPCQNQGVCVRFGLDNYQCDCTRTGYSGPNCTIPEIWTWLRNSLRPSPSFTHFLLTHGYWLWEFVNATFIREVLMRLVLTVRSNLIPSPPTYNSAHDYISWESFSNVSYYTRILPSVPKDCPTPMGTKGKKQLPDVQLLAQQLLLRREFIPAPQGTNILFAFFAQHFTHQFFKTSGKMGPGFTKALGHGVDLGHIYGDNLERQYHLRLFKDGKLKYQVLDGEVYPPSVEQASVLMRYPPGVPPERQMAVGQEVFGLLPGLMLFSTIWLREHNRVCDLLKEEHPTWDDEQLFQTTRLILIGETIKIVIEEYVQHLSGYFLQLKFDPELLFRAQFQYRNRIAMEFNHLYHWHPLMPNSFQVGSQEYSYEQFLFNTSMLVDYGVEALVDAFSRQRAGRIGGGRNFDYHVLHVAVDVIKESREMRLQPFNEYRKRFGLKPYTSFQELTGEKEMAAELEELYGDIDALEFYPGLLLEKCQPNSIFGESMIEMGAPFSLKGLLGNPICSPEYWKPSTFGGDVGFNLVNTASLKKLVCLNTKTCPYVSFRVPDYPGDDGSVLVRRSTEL
Kind of data set: Evaluation of COX-1 activity: PGE2 formation in mouse peritoneal macrophages without aspirin and LPS treatment. It counts as cell-based. As to conditions: for IC50: read-out: IC50, μg/ml COX-1 (converted). The method, then: (§1) Evaluation of in vitro COX-2 and COX-1 Activity [J. Pharmacol. Exp. Ther. 166, 96 (1969)]
(§2) The abdominal skin of a C57BL/6 mouse was sanitized with 70% aqueous ethanol, and was removed without damaging the peritoneum. 5 ml of cold phosphate buffer solution (PBS) was then injected into the abdominal cavity. After a minute, the peritoneal fluid containing the macrophages was collected using a syringe and a needle. The collected fluid was centrifuged for 5 min at 1500 rpm to afford pellets of cells. The pellets were then dispersed in the RPMI-1640 culture medium containing 100 units/ml penicillin and 100 μg/ml streptomycin.
(§3) The pellets dispersed as above were treated with 500 μM aspirin in order to knock out the activity of the COX-1 enzymes in the cells. The suspension was then diluted with the RPMI-1640 medium to contain 1×10^6 cells/ml. 100 μl of the suspension was added to each well of a 96-well ELISA plate. Then the plate was incubated for 2 hrs at 37° C. under 5% CO2 in order to fix the macrophages onto the plate. The cells, which were not fixed onto the plate were removed by washing with PBS two times. The purity of macrophages obtained thereby was confirmed by differential counting. The RPMI-1640 medium containing 3% fetal bovine serum albumin was added to each well of the plate, which was followed by stimulation with 10 μg/ml lipopolysaccharide (LPS). Usually 5×10^5 cells/ml were present by this preparation. The LPS-treated suspensions were incubated for 16 hours at 37° C. under 5% CO2 to induce COX-2. Then the culture medium was removed and the macrophages were washed two times with PBS. Then 130 μl RPMI-1640 culture medium was added to each well and the macrophage solutions were incubated at 37° C. for 10 minutes, which was followed by the treatment with 10 μM arachidonic acid and an appropriate amount of compounds of this invention. The plate was incubated for another 10 minutes. The upper solution was collected using a micropipette and was subjected to determination of PGE2 amount in the solution. The amount of PGE2 present in the collected solution was determined either by a known radio-immuno assay or by a known enzyme-immunoassay [Methods in Enzymol. 86, 258 (1982); Methods in Enzymol. 187, 24 (1990)]. The extent of COX-2 inhibition by a compound of the present invention was calculated by assuming, that the amount of PGE2 formed with the treatment of 10 μg/ml arachidonic acid was used is the maximum possible amount of PGE2, and that the amount of PGE2 formed without the treatment of arachidonic acid is the minimum possible amount of PGE2.
In the evaluation of COX-1 inhibitory activity by a compound of the present invention, the same procedures employed for evaluation of COX-2 activity were employed, except omitting the following two steps: 1) the treatment with aspirin for knockout of COX-1 activity and 2) treatment with LPS for induction of COX-2.
(§4) In order to determine IC50 for a compound of this invention, enzymatic activities were measured at multiple concentrations of compounds of this invention around IC50 of the compound. Usually enzymatic activities at 4˜5 concentrations were measured to calculate out IC50 for a compound of this invention.

In another data set the target is T2, COX-2 (Mus musculus, UniProt Q05769).
T2 sequence (Q05769 18-604): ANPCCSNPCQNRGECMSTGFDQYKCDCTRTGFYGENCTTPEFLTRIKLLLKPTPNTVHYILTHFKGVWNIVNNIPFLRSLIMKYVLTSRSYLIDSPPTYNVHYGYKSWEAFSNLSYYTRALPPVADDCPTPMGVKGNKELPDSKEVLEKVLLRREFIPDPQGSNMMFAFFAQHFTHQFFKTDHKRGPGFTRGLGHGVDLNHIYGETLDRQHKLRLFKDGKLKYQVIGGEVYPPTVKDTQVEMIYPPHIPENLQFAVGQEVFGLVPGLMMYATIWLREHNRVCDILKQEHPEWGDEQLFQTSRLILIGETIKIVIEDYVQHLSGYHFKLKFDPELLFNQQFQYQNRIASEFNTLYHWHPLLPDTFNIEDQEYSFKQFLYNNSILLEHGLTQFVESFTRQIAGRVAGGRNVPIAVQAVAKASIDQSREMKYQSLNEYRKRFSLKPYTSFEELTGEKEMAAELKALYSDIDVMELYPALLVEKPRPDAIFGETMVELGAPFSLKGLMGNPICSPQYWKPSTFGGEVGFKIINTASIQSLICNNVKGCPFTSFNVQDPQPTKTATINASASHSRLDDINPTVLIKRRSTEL
Description: Evaluation of COX-2 activity: PGE2 formation in aspirin-treated, LPS-stimulated mouse peritoneal macrophages. As to conditions: for IC50: read-out: IC50, μg/ml COX-2 (converted). It counts as cell-based. The procedure: as §1, §2
as §3, with “The purity of macrophages obtained thereby was confirmed by differential counting.” left out, “Usually 5×10^5 cells/ml were present by this preparation.” left out
as §4

Values after ≈ are worked out from the molar mass of the structure shown.

Take `CC1(C)OC(c2ccc(S(N)(=O)=O)c(Cl)c2)=C(c2cc(F)cc(F)c2)C1=O` [Example 371]: the melting point was in the range of 173 to 174 °C. Besides, the “IC50, μg/ml COX-1” value at COX-1 came to 200 µg/mL (≈ 483 µM). In addition, the “IC50, μg/ml COX-2” value at COX-2 was determined as 0.02 µg/mL (≈ 0.0483 µM).

Regarding `CC1(C)OC(c2ccc(S(C)(=O)=O)c(F)c2)=C(c2cc(F)cc(F)c2)C1=O` [Example 285], the melting point lay in the range of 163 to 164 °C. Besides, the “IC50, μg/ml COX-1” value at COX-1 worked out at 200 µg/mL (≈ 505 µM). For the same compound, the “IC50, μg/ml COX-2” value at COX-2 was found to be 0.03 µg/mL (≈ 0.0757 µM).

The compound `CC1(C)OC(c2ccc(S(C)(=O)=O)c(F)c2)=C(c2cccc(F)c2)C1=O` [Example 275] had a melting point of 182 to 183 °C. For the same compound, the “IC50, μg/ml COX-1” value against COX-1 amounted to 200 µg/mL (≈ 529 µM). Also, the “IC50, μg/ml COX-2” value against COX-2 came out at 0.03 µg/mL (≈ 0.0793 µM).

Compound `CCC1(C)OC(c2ccc(S(C)(=O)=O)cc2)=C(c2ccc(Cl)c(C(F)(F)F)c2)C1=O` (stereo not drawn) [Example 198] returned a melting point of 168 to 170 °C. Further, the IC50 at COX-1 was 6.54 µM. The IC50 at COX-2 is 0.0654 µM.

With `CC1(C)OC(c2ccc(S(N)(=O)=O)c(F)c2)=C(c2cccc(Cl)c2)C1=O` [Example 305], the melting point lay in the range of 164 to 165 °C. Besides, the “IC50, μg/ml COX-1” value against COX-1 stood at 0.3 µg/mL (≈ 0.758 µM). Besides, at COX-2, the “IC50, μg/ml COX-2” value came to 0.003 µg/mL (≈ 0.00758 µM).

Consider `CCC1(C)OC(c2ccc(S(C)(=O)=O)cc2)=C(c2ccccc2F)C1=O` (stereo not drawn) [Example 188], for which the melting point was 108 to 109 °C. The IC50 at COX-1 is 80.1 µM. Further, at COX-2, the IC50 is 0.801 µM.

For the compound `CC1(C)OC(c2ccc(S(C)(=O)=O)c(F)c2)=C(c2cccc(Cl)c2)C1=S` [Example 385, 4-(3-Chlorophenyl)-2,2-dimethyl-5-{3-fluoro-4-(methylsulfonyl)phenyl}-(2H)-furan-3-thione], the melting point lay within 105 to 106 °C. Further, on COX-1, the “IC50, μg/ml COX-1” value was 0.05 µg/mL (≈ 0.122 µM). In addition, on COX-2, the “IC50, μg/ml COX-2” value was 0.03 µg/mL (≈ 0.073 µM).

The compound `CCC1(CC)OC(c2ccc(S(C)(=O)=O)cc2)=C(c2ccc(C(F)(F)F)cc2)C1=O` [Example 246] had a melting point of 121 to 122 °C. The “IC50, μg/ml COX-1” value against COX-1 stood at 3 µg/mL (≈ 6.84 µM). Besides, the “IC50, μg/ml COX-2” value against COX-2 came to 0.03 µg/mL (≈ 0.0684 µM).

For the compound `CC1(C)OC(c2ccc(S(C)(=O)=O)c(Cl)c2)=C(c2cccc(Cl)c2)C1=O` [Example 358], the melting point was in the range of 188 to 189 °C. Moreover, on COX-1, the “IC50, μg/ml COX-1” value is 8 µg/mL (≈ 19.5 µM). Besides, the “IC50, μg/ml COX-2” value against COX-2 was 0.02 µg/mL (≈ 0.0486 µM).

Turning to `CC1(C)OC(c2ccc(S(C)(=O)=O)cc2)=C(c2cc(Cl)cc(Cl)c2)C1=O` [Example 75], the melting point lay in the range of 187 to 188 °C. The “IC50, μg/ml COX-1” value against COX-1 worked out at 3 µg/mL (≈ 7.29 µM). For the same compound, the “IC50, μg/ml COX-2” value on COX-2 stood at 0.03 µg/mL (≈ 0.0729 µM).

Regarding `CC1(C)OC(c2ccc(S(N)(=O)=O)c(Cl)c2)=C(c2cccc(Cl)c2)C1=O` [Example 368], the melting point was in the range of 162 to 163 °C. Besides, the “IC50, μg/ml COX-1” value at COX-1 was 7 µg/mL (≈ 17 µM). For the same compound, the “IC50, μg/ml COX-2” value at COX-2 turned out to be 0.02 µg/mL (≈ 0.0485 µM).

Compound `CC1(C)OC(c2ccc(S(N)(=O)=O)c(Cl)c2)=C(c2ccccc2)C1=O` [Example 367, 5-{4-(Aminosulfonyl)-3-chlorophenyl}-2,2-dimethyl-4-phenyl-3(2H)-furanone] gave a melting point of 193 to 194 °C. Moreover, the “IC50, μg/ml COX-1” value against COX-1 worked out at 8 µg/mL (≈ 21.2 µM). Besides, the “IC50, μg/ml COX-2” value against COX-2 was 0.06 µg/mL (≈ 0.159 µM).

On to `CCC1(C)OC(c2ccc(S(C)(=O)=O)cc2)=C(c2ccc(OC)c(F)c2)C1=O` (stereo not drawn) [Example 214], for which the melting point lay in the range of 158 to 160 °C. On COX-1, the IC50 was 7.42 µM. The IC50 at COX-2 is 0.0742 µM.

The compound `CC1(C)OC(c2ccc(S(C)(=O)=O)cc2)=C(c2cc(F)ccc2F)C1=O` [Example 103] registered a melting point of 141 to 142 °C. For the same compound, the “IC50, μg/ml COX-1” value on COX-1 turned out to be 20 µg/mL (≈ 52.9 µM). In addition, at COX-2, the “IC50, μg/ml COX-2” value came to 0.03 µg/mL (≈ 0.0793 µM).

With `CC1(C)OC(c2ccc(S(C)(=O)=O)c(F)c2)=C(c2ccc(C(F)(F)F)cc2)C1=O` [Example 286], the melting point was in the range of 134 to 135 °C. In addition, the “IC50, μg/ml COX-1” value on COX-1 came to 5 µg/mL (≈ 11.7 µM). For the same compound, the “IC50, μg/ml COX-2” value against COX-2 came out at 0.03 µg/mL (≈ 0.07 µM).

`CC1(C)OC(c2ccc(S(C)(=O)=O)cc2)=C(c2ccc(C=O)s2)C1=O` [Example 121] had a melting point of 168 to 170 °C. Moreover, the “IC50, μg/ml COX-1” value against COX-1 is 30 µg/mL (≈ 79.7 µM). For the same compound, on COX-2, the “IC50, μg/ml COX-2” value came to 0.2 µg/mL (≈ 0.531 µM).

Consider `CCC1(CC)OC(c2ccc(S(C)(=O)=O)cc2)=C(c2ccc(F)c(Cl)c2)C1=O` [Example 254], for which the melting point was 173 to 174 °C. Further, the “IC50, μg/ml COX-1” value against COX-1 turned out to be 3 µg/mL (≈ 7.09 µM). Moreover, the “IC50, μg/ml COX-2” value at COX-2 came out at 0.03 µg/mL (≈ 0.0709 µM).

`CC1(C)OC(c2ccc(S(C)(=O)=O)cc2)=C(c2ccc(O)cc2)C1=O` [Example 104, 2,2-Dimethyl-4-(4-hydroxyphenyl)-5-{4-(methylsulfonyl)phenyl}-3(2H)-furanone] registered a melting point of 150 to 152 °C. Further, the “IC50, μg/ml COX-1” value at COX-1 was 100 µg/mL (≈ 279 µM). Also, the “IC50, μg/ml COX-2” value at COX-2 was 0.3 µg/mL (≈ 0.837 µM).

As usually defined, the melting point is the temperature, or range, at which the solid turns liquid.

Values taken from patent US6492416B1, “4,5-diaryl-3(2H)-furanone derivatives as cyclooxygenase-2 inhibitors” (Pacific Corporation, priority 1999, dated 2002).
